Data set [1] deals with HIV-1 clinical isolated, characterised by mutations in the RT gene inducing geno-phenotypic resistance to ABC. The data set can be described thus: p24 production susceptibility test (ACTG protocol), Table 5. To be noted: PBMC, ratio to HIV-IIIB. In kind it is cell-based. The text has this:
(§1) For the phenotype of the nucleosidic, non-nucleosidic and proteases inhibitors was utilised a method which consider the use of human PBMC and the protocol standardised by the AIDS Clinical Trials Group, after verifying the genotype by sequence analysis.
(§2) In order to assay in vitro the susceptibility to chloroquine and hydroxychloroquine of the viral strains, it was used the protocol of the ACTG which is characterised by the measure, of the production of antigen p24 in strongly infected cells.
(§3) The susceptibility of the viral strains to chemotherapics was determined in cell cultures, prepared in 96 wells microplates, using, for the infection, 0.1 MOI.
(§4) The supernatant of the infected cultures (either in absence or in presence of different concentrations of chemotherapic) were tested for the production of p24 after 7 days, using an ELISA test which is commercially available.
(§5) The concentrations of chloroquine and hydroxychloroquine tested ranged from 0.5 to 15 uM. At the same time non-infected cells were incubated with concentrations of chloroquine and hydroxychloroquine ranging from 0 to 50 uM to evaluate the toxicity of the compound.
(§6) After 4 day from the infection, half the cellular medium was replaced with a medium containing the corresponding dilution of chloroquine and hydroxychloroquine. The percentage of inhibition of the HIV replication, induced by chloroquine and hydroxychloroquine, was determined, after 7 day from the infection, comparing the levels of p24 of this cultures and that of the control, infected and not treated with chloroquine and hydroxychloroquine.
(§7) Therefore, the E.C.50 of chloroquine and hydroxychloroquine expresses the concentration of chemotherapic that inhibits the 50% of production of p24 and the values were calculated using linear and non linear regression analysis (the significativity for the non linear regression was R^2>0.95).
(§8) In the same experimental conditions and in the same day, but with similar concentrations of chloroquine and hydroxychloroquine, it was evaluated the vitality of the infect cell cultures, and this was expressed as I.C.50.
(§9) I.C.50 (Inhibitory Concentration) indicates the concentration of the chemotherapic agent inhibiting the vitality of the cell cultures at a rate of 50%, when there is not infection.

In data set [2] the test system is HIV clinical isolated, characterised by mutations in the RT gene inducing geno-phenotypic resistance to ddI. The data set can be described thus: p24 production susceptibility test (ACTG protocol), Table 2. It counts as cell-based, HIV-1. To be noted: PBMC, ratio to HIV-IIIB.
From the text: as §1, §2, §3, §4, §5, §6, §7, §8, §9

The test system of data set [3] is HIV clinical isolated, characterised by mutations in the RT gene inducing geno-phenotypic resistance to AZT. The data set can be described thus: p24 production susceptibility test (ACTG protocol), Table 1. In kind it is cell-based, HIV-1. To be noted: PBMC, ratio to HIV-IIIB.
From the text: as §1, §2, §3, §4, §5, §6, §7, §8, §9

The subject of a further data set is HIV. The settings on record: 16 weeks, cited from earlier work.
The test system of data set [4] is HIV-1 clinical isolated, characterised by mutations in the RT gene inducing geno-phenotypic resistance to d4T. The data set can be described thus: p24 production susceptibility test (ACTG protocol), Table 4. The settings on record: PBMC, ratio to HIV-IIIB. It counts as cell-based.
From the text: as §1, §2, §3, §4, §5, §6, §7, §8, §9

For data set [5], the system named is HIV-1 strains geno-phenotypically resistant to EFV. The data set can be described thus: p24 production susceptibility test, Table 7, MT-2 cells. In kind it is cell-based. To be noted: ratio to HIV-IIIB.
Data set [6] shares this test system. The description is as above. In kind it is cell-based. The settings on record: MT-2, ratio to HIV-IIIB.
From the text: as §1, §2, §3, §4, §5, §6, §7, §8, §9

The test system of data set [7] is HIV-1 clinical isolated, characterised by mutations in the protease gene inducing geno-phenotypic resistance to IDV. The data set can be described thus: p24 production susceptibility test (ACTG protocol), Table 9. It counts as cell-based. To be noted: PBMC, ratio to HIV-IIIB.
From the text: as §1, §2, §3, §4, §5, §6, §7, §8, §9

The test system of data set [8] is HIV-1 clinical isolated, characterised by mutations on the protease gene inducing geno-phenotypic resistance to NFV. The data set can be described thus: p24 production susceptibility test, Table 10, H-9 cells. It counts as cell-based. The settings on record: H-9, ratio to HIV-IIIB.
From the text: as §1, §2, §3, §4, §5, §6, §7, §8, §9

The test system is the same in data set [9]. The data set can be described thus: p24 production susceptibility test (ACTG protocol), Table 10, PBMC. It counts as cell-based. The settings on record: ratio to HIV-IIIB.
From the text: as §1, §2, §3, §4, §5, §6, §7, §8, §9

Data set [10] relates to HIV-1 strains geno-phenotypically resistant to NVP. The data set can be described thus: p24 production susceptibility test, Table 6, MT-2 cells. In kind it is cell-based. The settings on record: MT-2, ratio to HIV-IIIB.
From the text: as §1, §2, §3, §4, §5, §6, §7, §8, §9

The test system is the same in data set [11]. The description is as above. The settings on record: ratio to HIV-IIIB. It counts as cell-based.
The subject of data set [12] is HIV-1 clinical isolated, characterised by mutations in the protease gene inducing geno-phenotypic resistance to SQV. The data set can be described thus: p24 production susceptibility test (ACTG protocol), Table 8. It counts as cell-based. The settings on record: PBMC, ratio to HIV-IIIB.
From the text: as §1, §2, §3, §4, §5, §6, §7, §8, §9

Regarding `Nc1nc(NC2CC2)c2ncn([C@H]3C=C[C@@H](CO)C3)c2n1` [ABC, Abacavir], the “Fen. ABC (fold)” value in data set [1] (Gen. K65R L74V M184V) worked out at 10X fold; in data set [1] (Gen. K65R S68G F77L Y115F Q151M M184V) it was 40X fold; in [1] (Gen. L74V M184F) it was 10X fold; in data set [1] (Gen. L74V Y115F M184V), 10X fold; in [1] (Gen. M41L D67N M184V L210W T215Y), 10X fold.

On to `Cc1cn([C@H]2C[C@H](N=[N+]=[N-])[C@@H](CO)O2)c(=O)[nH]c1=O` [AZT, Zidovudine], for which the “Fen. AZT (fold)” value in [2] (Gen D67N K70R M184V T215Y) is 40X fold; in [2] (Gen D67N K70R T215F K70R), greater than 80X fold; in data set [2] (Gen K70R T215F K219Q), 20X fold; in data set [2] (Gen M4IL M184V L210W R211KL 214F T215Y), 20X fold; in data set [2] (Gen M41I T215F), 40X fold; in data set [2] (Gen M41L D67N K70R M184V T215Y) it was greater than 80X fold. In addition, in [2] (Gen M41L D67N K70R T215Y), the “Fen. AZT (fold)” value was greater than 80X fold. The “Fen AZT (fold)” value was 20X fold in data set [3] (Gen. D67N K70R T215F K219Q); greater than 80X fold in data set [3] (Gen. D 67 Ns K 70N T215F K219Q); 20X fold in data set [3] (Gen. K70R T215F K219Q); 20X fold in [3] (Gen. M41I M184V L210W R221K T215Y); 40X fold in data set [3] (Gen. M41I T215Y); greater than 80X fold in [3] (Gen. M41L D67N K70RM 184V T215F). The “Fen AZT (fold)” value in data set [3] (Gen. M41LD 76N K70R T215Y) is reported as greater than 80X fold. In the data set with HIV (hydroxychloroquine 800 mg/day, AZT 500 mg/day), the negative events result is “no negative events were observed”. In the data set on HIV (AZT 500 mg/day (n=37)), the “patients with an increase of the plasmatic viremia at the end of the treatment” value was 8 patients.

`Cc1cn([C@H]2C=C[C@@H](CO)O2)c(=O)[nH]c1=O` [D4T, Stavudine]: the “Fen. D4T (fold)” value is recorded as 40X fold in data set [4] (Gen. K65R F77L Y115F Q151M M184V); 40X fold in data set [4] (Gen. K65R F116Y Q151M); 10X fold in data set [4] (Gen. M41I T69SSS T215Y); 10X fold in data set [4] (Gen. T69SSS T215Y); 20X fold in data set [4] (Gen. V75I F77L F116Y Q151M).

Consider `O=C1Nc2ccc(Cl)cc2[C@@](C#CC2CC2)(C(F)(F)F)O1` [EFV, Efavirenz], for which the “Fen. EFV (fold)” value in data set [5] (Gen. K103N V108D) is greater than 80X fold; in data set [5] (Gen. K103N), greater than 80X fold; in data set [5] (Gen. Y181C) it was 20X fold; in [6] (Gen. K101D K103N) it was greater than 80X fold; in [6] (Gen. K103N Y181C), greater than 80X fold; in [6] (Gen. L100I K103N) it was greater than 80X fold.

As to `CC(C)(C)NC(=O)[C@@H]1CN(Cc2cccnc2)CCN1C[C@@H](O)C[C@@H](Cc1ccccc1)C(=O)N[C@H]1c2ccccc2C[C@H]1O` [IDV, Indinavir], the “Fen. IDV (fold)” value is greater than 80X fold in data set [7] (Gen. G48V V82A); 20X fold in [7] (Gen. I84V L90M); 10X fold in data set [7] (Gen. K20R E35D M36I I54V V82T); 10X fold in data set [7] (Gen. L10R M46I L63P V82T); greater than 80X fold in [7] (Gen. V82F L90M).

As for `Cc1c(O)cccc1C(=O)N[C@@H](CSc1ccccc1)[C@H](O)CN1C[C@H]2CCCC[C@H]2C[C@H]1C(=O)NC(C)(C)C` [NFV, Nelfinavir], the “Fen. NFV (fold)” value in data set [8] (Gen. D30N) is on record as 30X fold; in data set [8] (Gen. V82A) it was 20X fold; in data set [9] (Gen. D30N A71V), 30X fold; in [9] (Gen. D30N M46V A71V), 30X fold; in [9] (Gen. G48V V92A), greater than 80X fold; in data set [9] (Gen. V82F L90M), greater than 80X fold.

As for `Cc1ccnc2c1NC(=O)c1cccnc1N2C1CC1` [NVP, Nevirapine], the “Fen. NVP (fold)” value in [10] (Gen. G190E), in [10] (Gen. V106A), in data set [11] (Gen. K103N) and in data set [11] (Gen. Y181C) was greater than 80X fold in each case.

Take `CC(C)(C)NC(=O)[C@@H]1C[C@@H]2CCCC[C@@H]2CN1C[C@@H](O)[C@H](Cc1ccccc1)NC(=O)[C@H](CC(N)=O)NC(=O)c1ccc2ccccc2n1` [SQV, Saquinavir]: the “Fen. SQV (fold)” value was 40X fold in data set [12] (Gen. G48V I84V A74V L90M); greater than 80X fold in [12] (Gen. G48V V82A); greater than 80X fold in data set [12] (Gen. I84V L90M); 20X fold in data set [12] (Gen. M46I G48V L63P L90M); 20X fold in data set [12] (Gen. V82A L90M).
